Earlier results on one compound are cited in US12390412B2, “Hydroglycolic cosmetic composition with a high active content” (L'OREAL, priority 2020, dated 2025).

For this series the following is noted: pH of the composition about 3.0 to about 4.0, more particularly about 3.5.

Molecules are shown by their SMILES.

Consider `O=C1O[C@H]([C@@H](O)CO)C(O)=C1O` [ascorbic acid], for which the “ascorbic acid remains in a protonated, uncharged form” value is listed as “greater than 82%”.
